Laboratory results as given in patent US9029092B2, “Solution phase homogeneous assays” (Beckman Coulter, Inc., priority 2009, dated 2015).

Tested on: biotinylated HRP
Assay: Model system for selection of SSIA (AK1/streptavidin BSA microparticles + biotinylated HRP)
Format: biochemical, horseradish
Conditions: SSIA 100 μM final; for light intensity, BTN-HRP0: Btn-HRP 0 ng/mL; for light intensity, BTN-HRP0 / light intensity, BTN-HRP1 / light intensity, BTN-HRP10 / light intensity, BTN-HRP100 / light intensity, BTN-HRP250: total HRP 500 ng/mL; for S1/S0: Btn-HRP 1 ng/mL vs 0; for light intensity, BTN-HRP1: Btn-HRP 1 ng/mL; for S2/S0: Btn-HRP 10 ng/mL vs 0; for light intensity, BTN-HRP10: Btn-HRP 10 ng/mL; for S3/S0: Btn-HRP 100 ng/mL vs 0; for light intensity, BTN-HRP100: Btn-HRP 100 ng/mL; for S4/S0: Btn-HRP 250 ng/mL vs 0; for light intensity, BTN-HRP250: Btn-HRP 250 ng/mL
Procedure: The model system uses a microparticle conjugated to BSA (bovine serum albumin) labeled with a […] and acridan ketenedithioacetal chemiluminescent label (AK1) as the chemiluminescent-labeled sbp, and biotinylated HRP as the activator-labeled specific binding pair. In the model system, varying amounts of Btn-HRP is added to the chemiluminescent-labeled specific binding pair at 0, 1, 10, 100 and 250 ng/mL. Additional unlabeled HRP is added to reach a total HRP of concentration of 500 ng/mL in each reaction mixture. The unlabeled HRP in combination with the activator-labeled sbp was provided to the chemiluminescent-labeled sbp microparticles to emulate sample. A compound for assessment as an SSIA was also added. This reaction mixture of the model system is then triggered by addition of trigger solution in a manner of assays of the present disclosure.
To prepare the chemiluminescent-labeled sbp on microparticles, Bovine Serum Albumin (BSA) was biotinylated with 4× molar excess of biotin-LC-sulfoNHS (Pierce Biotechnology Inc., Rockford, Ill., USA). Unbound reactants were removed via desalting or dialysis. The biotin-BSA was then reacted with a 5× molar excess of an NHS ester of acridan ketenedithioacetal AK1 in 20 mM sodium phosphate pH 7.2: DMSO 75:25, v/v) followed by desalting in the same buffer. The dual labeled (biotin and AK1) BSA was then coupled with tosyl activated M280 microparticles (Invitrogen Corporation, Carlsbad, Calif., USA) in a 0.1M borate buffer pH 9.5 at a concentration of about 20 μg of labeled BSA per mg of microparticles for 16-24 h at 40° C. After coupling the microparticles were stripped for 1 h at 40° C. with 0.2 M TRIS base, 2% SDS, pH˜11. The stripping process was repeated one additional time. Microparticles were then suspended in a 0.1% BSA/TRIS buffered saline (BSA/TBS) buffer and streptavidin (SA) was added at approximately 15 μg SA per mg microparticles. Streptavidin was mixed with the microparticles for 45-50 min at room temperature. The microparticles were then washed three times and suspended in the same BSA/TBS.
HRP, (Roche Diagnostics, Indianapolis, Ind., USA) was biotinylated with 4× molar excess of biotin-LC-sulfoNHS (Pierce Biotechnology Inc., Rockford, Ill., USA). Alternatively, 25× molar excess of biotin-PEO4-NHS may be used. Unbound reactants were removed via desalting or dialysis.
Each SSIA compound for assessment was solubilized in Buffer II at a concentration at least 10× of the working strength concentration.
25 μl of 1 mg/ml of dual-labeled (biotin and AK1) BSA M280 particles were mixed with 45 μl of working concentration SSIA in Buffer II. The assay volume brought to 85 μl by adding 15 μl of Buffer II. 15 μl of sample containing Btn-HRP:HRP at different ratios (The amount of biotinylated-HRP varied from 0, 1, 10, 100 and 250 ng/mL) was added. The reaction mixture was incubated for 30 min at 37° C., then 100 μL of trigger solution was added and the light intensity recorded. Total volume of reaction mixture, including trigger solution was 200 μL with a final concentration of 100 μM of SSIA.
The screening tests were performed using a modified DxI® Immunoassay System (Beckman Coulter, Inc. Brea, Calif.) as described above.

## (+/−)-alpha-Tocopherol
  light intensity, BTN-HRP0: 2,772
  S1/S0: 2.3
  light intensity, BTN-HRP1: 6,468
  S2/S0: 452.1
  light intensity, BTN-HRP10: 1,253,187
  S3/S0: 3088.2
  light intensity, BTN-HRP100: 8,560,469
  S4/S0: 3473.4
  light intensity, BTN-HRP250: 9,628,184

## Nc1ccc(C(=O)O)cc1O [4-Amino-3-hydroxy-benzoic acid]
  light intensity, BTN-HRP0: 972
  S1/S0: 2.9
  light intensity, BTN-HRP1: 2,808
  S2/S0: 454.2
  light intensity, BTN-HRP10: 441,455
  S3/S0: 6076.7
  light intensity, BTN-HRP100: 5,906,521
  S4/S0: 6587.9
  light intensity, BTN-HRP250: 6,403,425
  effectiveness as SSIA in the model system: demonstrating utility as SSIA

## Oc1ccc(C=Cc2cc(O)cc(O)c2)cc1 [Resveratrol]
  light intensity, BTN-HRP0: 64,051
  S1/S0: 1.3
  light intensity, BTN-HRP1: 81,452
  S2/S0: 16.8
  light intensity, BTN-HRP10: 1,073,968
  S3/S0: 92.8
  light intensity, BTN-HRP100: 5,944,792
  S4/S0: 102.4
  effectiveness as SSIA in the model system: insuffient effectiveness

## CC1(C)CC(O)CC(C)(C)N1[O] [TEMPOL]
  light intensity, BTN-HRP0: 22,621
  S1/S0: 1.5
  light intensity, BTN-HRP1: 33,873
  S2/S0: 86.8
  light intensity, BTN-HRP10: 1,963,369
  S3/S0: 407.6
  light intensity, BTN-HRP100: 9,220,799
  S4/S0: 467.6
  light intensity, BTN-HRP250: 10,578,104
  effectiveness as SSIA in the model system: insuffient effectiveness

## O=c1[nH]c(=O)c2[nH]c(=O)[nH]c2[nH]1 [Uric Acid]
  light intensity, BTN-HRP0: 5,532
  S1/S0: 1.8
  light intensity, BTN-HRP1: 9,760
  S2/S0: 185.3
  light intensity, BTN-HRP10: 1,025,209
  S3/S0: 1574.9
  light intensity, BTN-HRP100: 8,712,328
  S4/S0: 1935.8
  light intensity, BTN-HRP250: 10,708,733

## CC(=O)N[C@@H](CS)C(=O)O [N-Ac-Cysteine, N-acetyl cysteine]
  light intensity, BTN-HRP0: 43,647
  S1/S0: 1.1
  light intensity, BTN-HRP1: 47,636
  S2/S0: 40.3
  light intensity, BTN-HRP10: 1,757,607
  S3/S0: 199
  light intensity, BTN-HRP100: 8,685,795
  S4/S0: 234.2
  light intensity, BTN-HRP250: 10,219,869
  effectiveness as SSIA in the model system: insuffient effectiveness

## N[C@@H](CS)C(=O)O [Cysteine]
  light intensity, BTN-HRP0: 35,695
  S1/S0: 1.6
  light intensity, BTN-HRP1: 58,203
  S2/S0: 69.6
  light intensity, BTN-HRP10: 2,483,411
  S3/S0: 256.3
  light intensity, BTN-HRP100: 9,147,371
  S4/S0: 285.5
  light intensity, BTN-HRP250: 10,190,505
  effectiveness as SSIA in the model system: insuffient effectiveness

## COc1cc(C(=O)O)cc(OC)c1O [Syringic Acid]
  light intensity, BTN-HRP0: 14,485
  S1/S0: 1.6
  light intensity, BTN-HRP1: 23,707
  S2/S0: 64.8
  light intensity, BTN-HRP10: 939,372
  S3/S0: 547.2
  light intensity, BTN-HRP100: 7,927,096
  S4/S0: 658
  light intensity, BTN-HRP250: 9,530,979

## COc1cc(/C=C/C(=O)O)ccc1O [Ferulic acid]
  light intensity, BTN-HRP0: 5,252
  S1/S0: 2.3
  light intensity, BTN-HRP1: 12,079
  S2/S0: 136.2
  light intensity, BTN-HRP10: 715,313
  S3/S0: 1672.9
  light intensity, BTN-HRP100: 8,785,865
  S4/S0: 1950.5
  light intensity, BTN-HRP250: 10,244,269

## CCCCCCCCCCCCCCCC(=O)OC[C@H](O)[C@H]1OC(=O)C(O)=C1O [Ascorbic Acid 6-palmitate]
  light intensity, BTN-HRP0: 81
  S1/S0: 4
  light intensity, BTN-HRP1: 327
  S2/S0: 502.4
  light intensity, BTN-HRP10: 40,863
  S3/S0: 100662.3
  light intensity, BTN-HRP100: 8,187,204
  S4/S0: 125193.6
  light intensity, BTN-HRP250: 10,182,411
  effectiveness as SSIA in the model system: demonstrating utility as SSIA

## CC1(C)OC[C@@H]([C@H]2OC(=O)C(O)=C2O)O1 [5,6iso-propyliene ascorbic acid]
  light intensity, BTN-HRP0: 264
  S1/S0: 3.6
  light intensity, BTN-HRP1: 961
  S2/S0: 112.3
  light intensity, BTN-HRP10: 29,645
  S3/S0: 18626.9
  light intensity, BTN-HRP100: 4,917,499
  S4/S0: 33275
  light intensity, BTN-HRP250: 8,784,595
  effectiveness as SSIA in the model system: demonstrating utility as SSIA

## Oc1ccc(O)c(Cl)c1 [2-chloro-1,4-dihydroxybenzene]
  light intensity, BTN-HRP0: 3,571
  S1/S0: 1.1
  light intensity, BTN-HRP1: 4,007
  S2/S0: 52.9
  light intensity, BTN-HRP10: 188,920
  S3/S0: 170.8
  light intensity, BTN-HRP100: 610,053
  S4/S0: 245.3
  light intensity, BTN-HRP250: 875,831

## Cl.Nc1ccc(O)cc1O [4-aminoresorcinol hydrochloride]
  light intensity, BTN-HRP0: 675
  S1/S0: 1.7
  light intensity, BTN-HRP1: 1,163
  S2/S0: 110.8
  light intensity, BTN-HRP10: 74,764
  S3/S0: 489.0
  light intensity, BTN-HRP100: 330,056
  S4/S0: 384.5
  light intensity, BTN-HRP250: 259,541
